Source: paper PMC5622171 (Nature Communications, 2017)

What was measured:
Experiment in all cases: KINOMEscan kinase profiling
Assay type in all cases: binding
[1] = biological target: T1, JAK1(JH1domain-catalytic) (Homo sapiens, UniProt P23458)
T1 construct: JAK1(JH1domain-catalytic); purchased DiscoverX (Ambit Biosciences) KINOMEscan
Summary of the method: (§1)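 KINOMEscan profiling followed a published protocol. Kinases whose inhibition exceeded a set cut-off were then tested in a dilution series beginning at 30 µM.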

[2] = biological target: T2, PLK2 (Homo sapiens, UniProt Q9NYY3)
T2 construct: purchased DiscoverX (Ambit Biosciences) KINOMEscan
Summary of the method: as §1

[3] = biological target: T3, CTK (Homo sapiens, UniProt P42679); details: read-out: %Inhibition by 10 μM SPA70
T3 construct: purchased DiscoverX (Ambit Biosciences) KINOMEscan
Summary of the method: as §1

[4] = biological target: T4, PIK3CB (Homo sapiens, UniProt P42338); details: read-out: %Inhibition by 10 μM SPA70
T4 construct: purchased DiscoverX (Ambit Biosciences) KINOMEscan
Summary of the method: as §1

[5] = biological target: T5, PRKCI (Homo sapiens, UniProt P41743); details: read-out: %Inhibition by 10 μM SPA70
T5 construct: purchased DiscoverX (Ambit Biosciences) KINOMEscan
Summary of the method: as §1

[6] = biological target: T6, MAK (Homo sapiens, UniProt P20794); details: read-out: %Inhibition by 10 μM SPA70
T6 construct: purchased DiscoverX (Ambit Biosciences) KINOMEscan
Summary of the method: as §1

[7] = biological target: T7, PAK3 (Homo sapiens, UniProt O75914); details: read-out: %Inhibition by 10 μM SPA70
T7 construct: purchased DiscoverX (Ambit Biosciences) KINOMEscan
Summary of the method: as §1

[8] = biological target: T8, MLK1 (Homo sapiens, UniProt P80192); details: read-out: %Inhibition by 10 μM SPA70
T8 construct: purchased DiscoverX (Ambit Biosciences) KINOMEscan
Summary of the method: as §1

[9] = biological target: T9, PDGFRA (Homo sapiens, UniProt P16234); details: read-out: %Inhibition by 10 μM SPA70
T9 construct: purchased DiscoverX (Ambit Biosciences) KINOMEscan
Summary of the method: as §1

[10] = biological target: T10, MKNK2 (Homo sapiens, UniProt Q9HBH9); details: read-out: %Inhibition by 10 μM SPA70
T10 construct: purchased DiscoverX (Ambit Biosciences) KINOMEscan
Summary of the method: as §1

[11] = biological target: T11, HIPK4 (Homo sapiens, UniProt Q8NE63); details: read-out: %Inhibition by 10 μM SPA70
T11 construct: purchased DiscoverX (Ambit Biosciences) KINOMEscan
Summary of the method: as §1

[12] = biological target: T12, IKK-beta (Homo sapiens, UniProt O14920); details: read-out: %Inhibition by 10 μM SPA70
T12 construct: purchased DiscoverX (Ambit Biosciences) KINOMEscan
Summary of the method: as §1

[13] = biological target: T13, ACVR2B (Homo sapiens, UniProt Q13705)
T13 construct: purchased DiscoverX (Ambit Biosciences) KINOMEscan
Summary of the method: as §1

[14] = biological target: T14, SNARK (Homo sapiens, UniProt Q9H093)
T14 construct: purchased DiscoverX (Ambit Biosciences) KINOMEscan
Summary of the method: as §1

[15] = biological target: T15, PYK2 (Homo sapiens, UniProt Q14289); details: read-out: %Inhibition by 10 μM SPA70
T15 construct: purchased DiscoverX (Ambit Biosciences) KINOMEscan
Summary of the method: as §1

[16] = biological target: T16, MST4 (Homo sapiens, UniProt Q9P289); details: read-out: %Inhibition by 10 μM SPA70
T16 construct: purchased DiscoverX (Ambit Biosciences) KINOMEscan
Summary of the method: as §1

[17] = biological target: T17, MEK5 (Homo sapiens, UniProt Q13163); details: read-out: %Inhibition by 10 μM SPA70
T17 construct: purchased DiscoverX (Ambit Biosciences) KINOMEscan
Summary of the method: as §1

[18] = biological target: T18, AKT1 (Homo sapiens, UniProt P31749); details: read-out: %Inhibition by 10 μM SPA70
T18 construct: purchased DiscoverX (Ambit Biosciences) KINOMEscan
Summary of the method: as §1

[19] = biological target: T19, DCAMKL1 (Homo sapiens, UniProt O15075)
T19 construct: purchased DiscoverX (Ambit Biosciences) KINOMEscan
Summary of the method: as §1

[20] = biological target: T20, PRKD3 (Homo sapiens, UniProt O94806); details: read-out: %Inhibition by 10 μM SPA70
T20 construct: purchased DiscoverX (Ambit Biosciences) KINOMEscan
Summary of the method: as §1

[21] = biological target: T21, PHKG2 (Homo sapiens, UniProt P15735); details: read-out: %Inhibition by 10 μM SPA70
T21 construct: purchased DiscoverX (Ambit Biosciences) KINOMEscan
Summary of the method: as §1

[22] = biological target: T22, MET (Homo sapiens, UniProt P08581)
T22 construct: purchased DiscoverX (Ambit Biosciences) KINOMEscan
Summary of the method: as §1

[23] = biological target: T23, MAP4K3 (Homo sapiens, UniProt Q8IVH8)
T23 construct: purchased DiscoverX (Ambit Biosciences) KINOMEscan
Summary of the method: as §1

[24] = biological target: T24, EPHA4 (Homo sapiens, UniProt P54764); details: read-out: %Inhibition by 10 μM SPA70
T24 construct: purchased DiscoverX (Ambit Biosciences) KINOMEscan
Summary of the method: as §1

[25] = biological target: T25, p38-beta (Homo sapiens, UniProt Q15759); details: read-out: %Inhibition by 10 μM SPA70
T25 construct: purchased DiscoverX (Ambit Biosciences) KINOMEscan
Summary of the method: as §1

[26] = biological target: T26, BRSK1 (Homo sapiens, UniProt Q8TDC3); details: read-out: %Inhibition by 10 μM SPA70
T26 construct: purchased DiscoverX (Ambit Biosciences) KINOMEscan
Summary of the method: as §1

[27] = biological target: T27, VEGFR2 (Homo sapiens, UniProt P35968); details: read-out: %Inhibition by 10 μM SPA70
T27 construct: purchased DiscoverX (Ambit Biosciences) KINOMEscan
Summary of the method: as §1

[28] = biological target: T28, SNRK (Homo sapiens, UniProt Q9NRH2); details: read-out: %Inhibition by 10 μM SPA70
T28 construct: purchased DiscoverX (Ambit Biosciences) KINOMEscan
Summary of the method: as §1

[29] = biological target: T29, MARK1 (Homo sapiens, UniProt Q9P0L2); details: read-out: %Inhibition by 10 μM SPA70
T29 construct: purchased DiscoverX (Ambit Biosciences) KINOMEscan
Summary of the method: as §1

[30] = biological target: T30, MAST1 (Homo sapiens, UniProt Q9Y2H9); details: read-out: %Inhibition by 10 μM SPA70
T30 construct: purchased DiscoverX (Ambit Biosciences) KINOMEscan
Summary of the method: as §1

[31] = biological target: T31, AAK1 (Homo sapiens, UniProt Q2M2I8); details: read-out: %Inhibition by 10 μM SPA70
T31 construct: purchased DiscoverX (Ambit Biosciences) KINOMEscan
Summary of the method: as §1

[32] = biological target: T32, DYRK1A (Homo sapiens, UniProt Q13627); details: read-out: %Inhibition by 10 μM SPA70
T32 construct: purchased DiscoverX (Ambit Biosciences) KINOMEscan
Summary of the method: as §1

[33] = biological target: T33, CIT (Homo sapiens, UniProt O14578)
T33 construct: purchased DiscoverX (Ambit Biosciences) KINOMEscan
Summary of the method: as §1

[34] = biological target: T34, TYK2(JH1domain-catalytic) (Homo sapiens, UniProt P29597)
T34 construct: TYK2(JH1domain-catalytic); purchased DiscoverX (Ambit Biosciences) KINOMEscan
Summary of the method: as §1

[35] = biological target: T35, MARK2 (Homo sapiens, UniProt Q7KZI7); details: read-out: %Inhibition by 10 μM SPA70
T35 construct: purchased DiscoverX (Ambit Biosciences) KINOMEscan
Summary of the method: as §1

[36] = biological target: T36, PKAC-beta (Homo sapiens, UniProt P22694)
T36 construct: purchased DiscoverX (Ambit Biosciences) KINOMEscan
Summary of the method: as §1

[37] = biological target: T37, CAMK1D (Homo sapiens, UniProt Q8IU85); details: read-out: %Inhibition by 10 μM SPA70
T37 construct: purchased DiscoverX (Ambit Biosciences) KINOMEscan
Summary of the method: as §1

[38] = biological target: T38, IGF1R (Homo sapiens, UniProt P08069); details: read-out: %Inhibition by 10 μM SPA70
T38 construct: purchased DiscoverX (Ambit Biosciences) KINOMEscan
Summary of the method: as §1

[39] = biological target: T39, RPS6KA4(Kin.Dom.2-C-terminal) (Homo sapiens, UniProt O75676); details: read-out: %Inhibition by 10 μM SPA70
T39 construct: RPS6KA4(Kin.Dom.2-C-terminal); purchased DiscoverX (Ambit Biosciences) KINOMEscan
Summary of the method: as §1

[40] = biological target: T40, PLK4 (Homo sapiens, UniProt O00444); details: read-out: %Inhibition by 10 μM SPA70
T40 construct: purchased DiscoverX (Ambit Biosciences) KINOMEscan
Summary of the method: as §1

[41] = biological target: T41, SRMS (Homo sapiens, UniProt Q9H3Y6); details: read-out: %Inhibition by 10 μM SPA70
T41 construct: purchased DiscoverX (Ambit Biosciences) KINOMEscan
Summary of the method: as §1

T21 sequence (P15735 whole entry): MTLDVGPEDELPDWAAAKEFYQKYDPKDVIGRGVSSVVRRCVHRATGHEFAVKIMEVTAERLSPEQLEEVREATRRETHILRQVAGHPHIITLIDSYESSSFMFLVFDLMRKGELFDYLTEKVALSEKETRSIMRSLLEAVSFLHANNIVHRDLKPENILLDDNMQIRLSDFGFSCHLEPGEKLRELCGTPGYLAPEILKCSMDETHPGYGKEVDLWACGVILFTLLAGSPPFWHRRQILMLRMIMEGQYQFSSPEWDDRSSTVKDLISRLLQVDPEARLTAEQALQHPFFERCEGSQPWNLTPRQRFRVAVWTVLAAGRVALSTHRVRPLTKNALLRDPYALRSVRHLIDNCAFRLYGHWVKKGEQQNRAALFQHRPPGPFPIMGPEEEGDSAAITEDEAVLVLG
T9 sequence (P16234 24-1089): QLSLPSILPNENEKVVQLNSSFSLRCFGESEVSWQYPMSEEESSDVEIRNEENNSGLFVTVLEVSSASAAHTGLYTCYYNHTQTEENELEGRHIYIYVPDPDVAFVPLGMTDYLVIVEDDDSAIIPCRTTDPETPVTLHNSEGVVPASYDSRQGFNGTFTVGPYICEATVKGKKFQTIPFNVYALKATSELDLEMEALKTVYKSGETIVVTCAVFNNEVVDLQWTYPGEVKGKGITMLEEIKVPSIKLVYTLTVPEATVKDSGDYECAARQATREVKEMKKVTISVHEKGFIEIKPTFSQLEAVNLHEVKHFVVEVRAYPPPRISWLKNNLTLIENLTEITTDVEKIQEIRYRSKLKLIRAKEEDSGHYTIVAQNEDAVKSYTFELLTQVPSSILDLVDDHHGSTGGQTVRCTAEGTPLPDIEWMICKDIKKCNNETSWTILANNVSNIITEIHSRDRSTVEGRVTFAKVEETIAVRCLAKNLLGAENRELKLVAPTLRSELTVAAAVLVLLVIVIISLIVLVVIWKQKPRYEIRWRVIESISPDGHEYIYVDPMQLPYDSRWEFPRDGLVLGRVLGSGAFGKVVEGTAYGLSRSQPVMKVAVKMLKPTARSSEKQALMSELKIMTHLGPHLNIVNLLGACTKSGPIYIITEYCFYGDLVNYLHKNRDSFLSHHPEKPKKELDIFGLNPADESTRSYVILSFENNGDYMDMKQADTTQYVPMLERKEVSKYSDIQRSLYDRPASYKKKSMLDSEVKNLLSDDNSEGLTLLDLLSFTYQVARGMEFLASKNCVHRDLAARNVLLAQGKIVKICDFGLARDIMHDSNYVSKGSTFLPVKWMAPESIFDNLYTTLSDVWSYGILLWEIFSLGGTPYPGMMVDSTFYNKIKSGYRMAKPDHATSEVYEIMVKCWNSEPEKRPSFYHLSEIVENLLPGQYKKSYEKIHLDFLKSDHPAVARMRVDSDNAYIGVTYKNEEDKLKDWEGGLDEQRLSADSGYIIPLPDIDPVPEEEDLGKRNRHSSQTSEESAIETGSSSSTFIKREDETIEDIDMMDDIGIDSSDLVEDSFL
T3 sequence (P42679 whole entry): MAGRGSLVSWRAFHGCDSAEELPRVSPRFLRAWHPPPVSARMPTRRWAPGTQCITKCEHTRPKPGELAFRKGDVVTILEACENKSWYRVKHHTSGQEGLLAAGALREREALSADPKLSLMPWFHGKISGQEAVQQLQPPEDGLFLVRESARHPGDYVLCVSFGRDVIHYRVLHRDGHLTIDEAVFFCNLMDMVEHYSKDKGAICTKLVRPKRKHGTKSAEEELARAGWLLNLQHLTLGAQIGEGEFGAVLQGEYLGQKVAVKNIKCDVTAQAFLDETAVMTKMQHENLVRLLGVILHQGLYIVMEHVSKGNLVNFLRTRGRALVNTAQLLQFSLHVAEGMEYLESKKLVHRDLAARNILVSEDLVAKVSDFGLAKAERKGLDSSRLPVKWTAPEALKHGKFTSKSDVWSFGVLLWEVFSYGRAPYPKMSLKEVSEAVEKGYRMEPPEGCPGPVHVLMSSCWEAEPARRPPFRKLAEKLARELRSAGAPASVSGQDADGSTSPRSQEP
T2 sequence (Q9NYY3 whole entry): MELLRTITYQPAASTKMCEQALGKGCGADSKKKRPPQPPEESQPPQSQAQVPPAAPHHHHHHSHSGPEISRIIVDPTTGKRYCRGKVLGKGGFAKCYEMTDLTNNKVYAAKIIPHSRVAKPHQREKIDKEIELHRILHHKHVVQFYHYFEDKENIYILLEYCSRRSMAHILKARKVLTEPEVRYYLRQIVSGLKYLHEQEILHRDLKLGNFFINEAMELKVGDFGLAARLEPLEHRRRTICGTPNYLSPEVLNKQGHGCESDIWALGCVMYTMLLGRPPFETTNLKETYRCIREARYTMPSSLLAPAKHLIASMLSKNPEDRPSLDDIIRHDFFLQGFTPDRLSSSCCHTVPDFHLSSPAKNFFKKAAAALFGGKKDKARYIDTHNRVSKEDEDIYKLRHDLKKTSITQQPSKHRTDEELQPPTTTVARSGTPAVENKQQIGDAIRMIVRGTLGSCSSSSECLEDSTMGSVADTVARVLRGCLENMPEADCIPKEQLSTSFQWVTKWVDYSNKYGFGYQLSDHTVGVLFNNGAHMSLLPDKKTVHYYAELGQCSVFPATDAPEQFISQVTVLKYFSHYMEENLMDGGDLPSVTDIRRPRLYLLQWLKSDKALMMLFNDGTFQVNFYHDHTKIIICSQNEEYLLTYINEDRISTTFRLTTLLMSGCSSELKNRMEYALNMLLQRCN
T35 sequence (Q7KZI7 whole entry): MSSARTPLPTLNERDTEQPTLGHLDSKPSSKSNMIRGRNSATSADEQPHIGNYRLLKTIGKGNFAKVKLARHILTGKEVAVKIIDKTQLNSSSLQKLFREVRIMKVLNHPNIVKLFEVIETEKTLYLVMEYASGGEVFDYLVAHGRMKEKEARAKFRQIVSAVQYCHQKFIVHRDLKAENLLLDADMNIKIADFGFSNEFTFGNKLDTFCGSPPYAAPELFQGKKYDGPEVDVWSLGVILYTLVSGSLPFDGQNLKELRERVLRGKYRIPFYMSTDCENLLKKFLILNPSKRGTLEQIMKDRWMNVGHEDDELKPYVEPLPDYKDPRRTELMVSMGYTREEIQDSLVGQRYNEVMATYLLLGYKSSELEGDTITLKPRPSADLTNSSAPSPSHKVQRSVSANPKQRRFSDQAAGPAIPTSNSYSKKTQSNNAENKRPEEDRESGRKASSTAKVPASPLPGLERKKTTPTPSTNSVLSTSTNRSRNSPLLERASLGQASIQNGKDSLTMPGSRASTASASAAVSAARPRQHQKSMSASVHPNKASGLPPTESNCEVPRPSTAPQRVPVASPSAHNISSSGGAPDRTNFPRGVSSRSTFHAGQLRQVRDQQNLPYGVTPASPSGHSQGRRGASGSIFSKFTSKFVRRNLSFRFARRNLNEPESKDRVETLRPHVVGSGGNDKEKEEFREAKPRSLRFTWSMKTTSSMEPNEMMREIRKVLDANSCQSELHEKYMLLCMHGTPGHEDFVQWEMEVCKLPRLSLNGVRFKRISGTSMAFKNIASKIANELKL
T6 sequence (P20794 whole entry): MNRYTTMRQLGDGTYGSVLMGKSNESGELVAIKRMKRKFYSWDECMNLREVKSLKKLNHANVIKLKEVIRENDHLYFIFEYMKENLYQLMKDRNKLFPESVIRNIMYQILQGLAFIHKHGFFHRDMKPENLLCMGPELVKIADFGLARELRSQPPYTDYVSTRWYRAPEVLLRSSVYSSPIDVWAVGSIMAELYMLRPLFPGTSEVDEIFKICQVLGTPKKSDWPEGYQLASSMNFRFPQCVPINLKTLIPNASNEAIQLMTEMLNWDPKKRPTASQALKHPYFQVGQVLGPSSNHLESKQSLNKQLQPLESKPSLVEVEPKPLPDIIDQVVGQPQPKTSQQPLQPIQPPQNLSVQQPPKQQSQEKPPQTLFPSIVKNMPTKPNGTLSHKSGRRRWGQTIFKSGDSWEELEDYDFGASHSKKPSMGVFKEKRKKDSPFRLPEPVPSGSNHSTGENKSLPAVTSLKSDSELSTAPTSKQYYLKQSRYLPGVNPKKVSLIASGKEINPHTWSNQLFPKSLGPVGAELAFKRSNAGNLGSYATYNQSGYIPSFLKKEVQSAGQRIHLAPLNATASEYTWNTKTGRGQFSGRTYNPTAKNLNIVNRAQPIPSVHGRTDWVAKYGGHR
T28 sequence (Q9NRH2 whole entry): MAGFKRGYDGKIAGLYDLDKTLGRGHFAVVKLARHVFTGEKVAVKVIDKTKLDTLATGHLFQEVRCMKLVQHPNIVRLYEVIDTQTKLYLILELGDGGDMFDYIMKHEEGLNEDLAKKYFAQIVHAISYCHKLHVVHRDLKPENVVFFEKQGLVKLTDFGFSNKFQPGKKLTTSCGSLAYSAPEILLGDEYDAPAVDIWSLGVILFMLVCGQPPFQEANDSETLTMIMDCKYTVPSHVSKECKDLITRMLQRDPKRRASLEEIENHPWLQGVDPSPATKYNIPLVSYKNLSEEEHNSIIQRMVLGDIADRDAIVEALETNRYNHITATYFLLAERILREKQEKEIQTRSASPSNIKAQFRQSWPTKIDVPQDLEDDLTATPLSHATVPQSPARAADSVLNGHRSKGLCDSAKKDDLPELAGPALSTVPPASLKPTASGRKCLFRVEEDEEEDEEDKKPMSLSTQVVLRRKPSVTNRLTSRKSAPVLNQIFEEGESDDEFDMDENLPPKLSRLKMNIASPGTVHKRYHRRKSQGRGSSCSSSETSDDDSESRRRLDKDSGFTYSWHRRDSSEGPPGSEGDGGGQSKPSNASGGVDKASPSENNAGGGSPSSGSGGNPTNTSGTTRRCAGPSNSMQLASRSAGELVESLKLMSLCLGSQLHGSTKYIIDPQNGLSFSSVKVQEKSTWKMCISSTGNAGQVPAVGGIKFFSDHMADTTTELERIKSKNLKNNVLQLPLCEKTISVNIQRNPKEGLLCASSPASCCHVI

## COc1ccc(OC)c(-n2nnc(S(=O)(=O)c3ccc(C(C)(C)C)cc3)c2C)c1 [SPA70]
[1]
  %Inhibition by 10 μM SPA70: 19%
[2]
  %Inhibition by 10 μM SPA70: 9%
[3]
  inhibition at 10 µM: 6%
[4]
  inhibition at 10 µM: 8%
[5]
  inhibition at 10 µM: 0%
[6]
  inhibition at 10 µM: 13%
[7]
  inhibition at 10 µM: 0%
[8]
  inhibition at 10 µM: 0%
[9]
  inhibition at 10 µM: 36%
[10]
  inhibition at 10 µM: 6%
[11]
  inhibition at 10 µM: 0%
[12]
  inhibition at 10 µM: 26%
[13]
  %Inhibition by 10 μM SPA70: 0%
[14]
  %Inhibition by 10 μM SPA70: 8%
[15]
  inhibition at 10 µM: 2%
[16]
  inhibition at 10 µM: 15%
[17]
  inhibition at 10 µM: 8%
[18]
  inhibition at 10 µM: 0%
[19]
  %Inhibition by 10 μM SPA70: 0%
[20]
  inhibition at 10 µM: 0%
[21]
  inhibition at 10 µM: 0%
[22]
  %Inhibition by 10 μM SPA70: 0%
[23]
  %Inhibition by 10 μM SPA70: 0%
[24]
  inhibition at 10 µM: 0%
[25]
  inhibition at 10 µM: 0%
[26]
  inhibition at 10 µM: 8%
[27]
  inhibition at 10 µM: 0%
[28]
  inhibition at 10 µM: 0%
[29]
  inhibition at 10 µM: 0%
[30]
  inhibition at 10 µM: 0%
[31]
  inhibition at 10 µM: 11%
[32]
  inhibition at 10 µM: 0%
[33]
  %Inhibition by 10 μM SPA70: 12%
[34]
  %Inhibition by 10 μM SPA70: 0%
[35]
  inhibition at 10 µM: 16%
[36]
  %Inhibition by 10 μM SPA70: not inhibited
[36]; read-out: %Inhibition by 10 μM SPA70
  inhibition at 10 µM: 0%
[37]
  inhibition at 10 µM: 20%
[38]
  inhibition at 10 µM: 0%
[39]
  inhibition at 10 µM: 0%
[40]
  inhibition at 10 µM: 9%
[41]
  inhibition at 10 µM: 0%
